Experimental data published in US12497365B2, “4-pyridinyl formamide compound or derivative thereof, preparation method therefor, herbicidal composition and use thereof” (Qingdao Kingagroot Chemical Compound Co., Ltd., priority 2019, dated 2025).

Experiments:
[1] = system: Wheat; assay: Crop selectivity in post-emergence stage; format: in vivo; details: active ingredient 250 g/ha
Source text: (§1) The activity level criteria for plant damage (i.e., growth control rate) are as follows:
(§2) The above growth control rates are fresh weight control rates.
(§3) Experiment on weeding effect in post-emergence stage: monocotyledonous and dicotyledonous weed seeds and major crop seeds (wheat, corn, rice, soybean, cotton, oilseed rape, millet, sorghum) were placed in plastic pots filled with soil, then covered with 0.5-2 cm of soil, allowed to grow in a good greenhouse environment. After 2 weeks of sowing, the test plants were treated in the 2-3 leaf stage. The tested compounds of the present invention were respectively dissolved in acetone at the dosage of 2000, 1000, 500, 250, 125 g/ha, then added with Tween 80 and 1.5 liter/ha of emulsifiable concentrate of methyl oleate as synergist, diluted with a certain amount of water to obtain a solution with a certain concentration, and sprayed with a spray tower onto the plants. After the application, the plants were cultured for 3 weeks in the greenhouse, and then the experimental results were listed in Table 1.
(§4) In addition, under the active ingredient of 250 g/ha, many compounds also show good crop selectivity and excellent control effect on key weeds.

[2] = system: Sclerochloa dura; assay: Weeding effect in post-emergence stage; format: in vivo; details: active ingredient 250 g/ha
Source text: as §1, §2, §3, §4

[3] = system: Beckmannia syzigachne; assay: Weeding effect in post-emergence stage; format: in vivo; details: active ingredient 250 g/ha
Source text: as §1, §2, §3, §4

[4] = system: Alopecurus myosuroides; assay: Weeding effect in post-emergence stage; format: in vivo; details: active ingredient 250 g/ha
Source text: as §1, §2, §3, §4

[5] = system: Alopecurus aequalis; assay: Weeding effect in post-emergence stage; format: in vivo; details: active ingredient 250 g/ha
Source text: as §1, §2, §3, §4

[6] = system: Chenopodium album; assay: Weeding effect in post-emergence stage; format: in vivo; details: active ingredient 2000 g/ha, 3 weeks after application, fresh weight control rate
Method in brief: (§5)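 Pot-grown weeds at the 2-3 leaf stage receive a tower spray of test compound at 2000, 1000, 500, 250 or 125 g/ha, formulated in acetone with Tween 80 and methyl oleate synergist. Fresh weight reduction is rated on an activity scale 3 weeks later.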

[7] = system: Amaranthus retroflexus L.; assay: Weeding effect in post-emergence stage; format: in vivo; details: active ingredient 2000 g/ha, 3 weeks after application, fresh weight control rate
Method in brief: as §5

[8] = system: Descurainia sophia; assay: Weeding effect in post-emergence stage; format: in vivo; details: for Activity level (growth control rate), Descurainia sophia: active ingredient 250 g/ha; for Weeding effect, activity level (growth control rate), Descurainia sophia: active ingredient 2000 g/ha, 3 weeks after application, fresh weight control rate
Method in brief: as §5

[9] = system: Abutilon theophrasti; assay: Weeding effect in post-emergence stage; format: in vivo; details: active ingredient 2000 g/ha, 3 weeks after application, fresh weight control rate
Method in brief: as §5

[10] = system: Echinochloa crusgalli, Scirpus juncoides, Bidens tripartita L., Sagittaria trifolia, Monochoria vaginalis; assay: Weed control effect evaluation in rice field; format: in vivo, rice field weeds; details: weed seeds collected from Heilongjiang Province of China
Source text: Transplanted rice safety evaluation and weed control effect evaluation in rice field:
Rice field soil was loaded into a 1/1,000,000 ha pot. The seeds of Echinochloa crusgalli, Scirpus juncoides, Bidens tripartita L., Sagittaria trifolia, and Monochoria vaginalis were sowed and gently covered with soil, then left to stand still in greenhouse in the state of 0.5-1 cm of water storage. The tuber of Sagittaria trifolia was planted in the next day or 2 days later. It was kept at 3-4 cm of water storage thereafter. The weeds were treated by dripping the WP or SC water diluents prepared according to the common preparation method of the compounds of the present invention with pipette homogeneously to achieve specified effective amount when Echinochloa crusgalli, Scirpus juncoides, Bidens tripartita L., and Monochoria vaginalis reached 0.5 leaf stage and Sagittaria trifolia reached the time point of primary leaf stage.
The fertility condition of Echinochloa crusgalli, Scirpus juncoides, Bidens tripartita L., Sagittaria trifolia and Monochoria vaginalis 14 days after the treatment of the compound of the invention and the fertility condition of rice 21 days after the treatment of the compound of the invention respectively with the naked eye. Evaluate the weed control effect with the above 0-5 activity standard level, many compounds show excellent activity and selectivity. […]

Row | SMILES | Plant damage level (growth control rate), Wheat [1] | Activity level (growth control rate), Sclerochloa dura [2] | Activity level (growth control rate), Beckmannia syzigachne [3] | Activity level (growth control rate), Alopecurus myosuroides [4] | Activity level (growth control rate), Alopecurus aequalis [5] | Weeding effect, activity level (growth control rate), Chenopodium album [6] | Weeding effect, activity level (growth control rate), Amaranthus retroflexus L. [7] | Activity level (growth control rate), Descurainia sophia [8] | Weeding effect, activity level (growth control rate), Descurainia sophia [8] | Weeding effect, activity level (growth control rate), Abutilon theophrasti [9] | Response of the rice field weeds to common doses of the herbicide [10]
1 | Cn1nnnc1NC(=O)c1ccnc(-c2ccc(F)cc2)c1Cl [Compound 1-17] | 0 (Level 0: growth control rate is less than 5%) | 5 (Level 5: growth control rate is above 85%) | 5 (Level 5: growth control rate is above 85%) | 5 (Level 5: growth control rate is above 85%) | 5 (Level 5: growth control rate is above 85%) | 5 (Level 5: growth control rate is above 85%) | 5 (Level 5: growth control rate is above 85%) | 5 (Level 5: growth control rate is above 85%) | 5 (Level 5: growth control rate is above 85%) | 5 (Level 5: growth control rate is above 85%) | 
2 | COc1cnc(OC)n2nc(NS(=O)(=O)c3c(OCC(F)F)cccc3C(F)(F)F)nc12 [Penoxsulam, penoxsulam] |  |  |  |  |  |  |  |  |  |  | resistant
3 | Cc1nonc1NC(=O)c1ccnc(C)c1Cl [Control compound A, reference compound] | 0 (Level 0: growth control rate is less than 5%) | 0 (Level 0: growth control rate is less than 5%) | 0 (Level 0: growth control rate is less than 5%) | 0 (Level 0: growth control rate is less than 5%) | 0 (Level 0: growth control rate is less than 5%) |  |  | 0 (Level 0: growth control rate is less than 5%) |  |  | 
4 | Cn1nnnc1NC(=O)c1ccnc(-c2ccccc2F)c1Cl [Compound 1-15] | 0 (Level 0: growth control rate is less than 5%) | 5 (Level 5: growth control rate is above 85%) | 5 (Level 5: growth control rate is above 85%) | 5 (Level 5: growth control rate is above 85%) | 5 (Level 5: growth control rate is above 85%) | 5 (Level 5: growth control rate is above 85%) | 5 (Level 5: growth control rate is above 85%) | 5 (Level 5: growth control rate is above 85%) | 5 (Level 5: growth control rate is above 85%) | 5 (Level 5: growth control rate is above 85%) | 
5 | CCOC(=O)c1cnn(C)c1S(=O)(=O)NC(=O)Nc1nc(OC)cc(OC)n1 [Pyrazosulfuron-ethyl, pyrazosulfuron-ethyl] |  |  |  |  |  |  |  |  |  |  | resistant
